Data on 7 molecules can be found in patent publication US5175290A, “8-(oxo-substituted cycloalkyl)xanthines” (Marion Merrell Dow Inc., priority 1988, dated 1992).

In series [1] the test system is histamine-induced bronchoconstriction. The experiment in a line: Reversal of histamine-induced bronchoconstriction in the anesthetized guinea pig. In kind it is in vivo. Conditions: guinea pigs; for ED50: Cavia porcellus, iv, dose required to reverse the histamine response by 50%; for maximum effect (maximum percent reversal of histamine-induced bronchoconstriction): i.v. Here is the method: Reversal of histamine-induced bronchoconstriction in the anesthetized guinea pig
A modification of the general method of H. Konzett and R. Rossler [Naunyn-Schmiedeberg's Arch. Pharmakol.
Male Duncan-Hartley guinea pigs (400-600) were anesthetized using an intratraperitoneal injection of urethane (1.5 g/kg). After the neck area was shaved, the animal was placed in the dorsal recumbent position on a Narco temperature controlled surgical board (37° C.) to maintain body temperature. Following a midline neck incision, the carotid artery and jugular vein were cannulated using PE50 polyethylene tubing. Both catheters were flushed with heparinized saline (20 U/mL) to prevent clotting. The trachea was then cannulated using a 15 gauge Leuer stub and was connected to a Harvard Apparatus small animal respirator. The animal was ventilated at a constant rate and volume (52 breaths/minute and 1 mL room air/[…] body weight). Airway pressure was measured using a Statham pressure transducer connected to the side port of the tracheal cannula. The arterial blood pressure was measured using a Statham pressure transducer connected to the carotid artery. Both transducers were connected to a Gould chart recorder to produce the desired physiographs.
After allowing the animal to stabilize for 10 minutes, aerosolized histamine (0.01%) was delivered to the airways using a DeVilbiss ultrasonic nebulizer connected in-line between the respirator and the guinea pig. After the maximum bronchoconstriction was reached, as evidenced by a maximum plateau in airway pressure, an injection of vehicle (0.6 mL) was administered via the jugular vein. […] At the end of the experiment, terbutaline sulfate (1 mg/mL), a beta agonist, was injected i.v. to determine if further bronchodilation could be achieved The nebulizer was then turned off and the minimum airway pressure was recorded to determine the final baseline pressure.
ED50 (mg/kg) values and maximum effect (%) were calculated using SAS and PROBIT computer analyses. […] The maximum effect is the maximum percent reversal of histamine-induced bronchoconstriction produced by the test compound.

Series [2] concerns pentobarbital-induced heart failure. Nature of the series: Pentobarbital-induced heart failure in rats. In kind it is in vivo, rat (Sprague-Dawley). Conditions: for ED40: Rattus norvegicus, iv; for heart rate, maximum recovery dose: bracketed value under RD40 heart rate.
Method: Adult male Sprague-Dawley rats (350-450 g) were used in this example. Animals were anesthetized using sodium pentobarbital (40-50 mg/kg, i.p.) and placed supine on a heated (37° C.) surgical table. A 7F pressure tipped catheter (Millar) was inserted into the left carotid artery and advanced into the left ventricle of the heart to measure left ventricular pressure (LVP), dP/dt and heart rate (HR). Mean arterial blood pressure (MABP) was monitored via a PE-50 catheter placed into a femoral artery. The right jugular vein and a femoral vein were catheterized with PE-10 tubing for infusion of the test compounds and pentobarbital, respectively.
Following bilateral cervical vagotomy, a 15 gauge blunt needle was inserted into the trachea via a midcervical tracheostomy to ventilate the animals (60/minute, TV=2.3 mL) Each animal was allowed a 5-10 minute period to stabilize and control measurements were recorded. A dose of 60-70 mg/kg of pentobarbital wa then administered slowly over a 5 minute period via the femoral vein until MABP was stabilized at 60 mm Hg, at which time an infusion of 0.2 mg/kg/minute of pentobarbital was begun and continued throughout the experiment. Each animal was then allowed 10-15 minutes to stabilize and values representing heart failure were recorded. Control and test compounds were tested in a cumulative-dose manner using at least four doses. Dose-related effects, e.g., dP/dt and MABP were continually monitored during a 15 minute recovery period between each dose. At the time of the peak dP/dt response during each recovery period, values for all four variables were recorded. The animals were sacrificed using a lethal injection of pentobarbital 15 minutes following the last dose of the test compound. Only one compound was administered to each animal.
The RD40 is defined as the dose of compound required to achieve a 40% recovery in the variable (dP/dt, MABP) being measured. It was calculated for each compound using an SAS® probit analysis on a Vax computer. Briefly, the program transforms the dose into log 10 and calculates the line of least squares using the mean value for recovery at each dose. In most instances the RD40 was then extrapolated, but in those instances where a full dose-response curve was not achieved because of the limited solubility of the compound, the RD40 was estimated.
In series [3] the test system is basal heart rate and basal blood pressure. Nature of the series: Cardiovascular effects (basal heart rate and basal blood pressure) in guinea pigs. The note with it: i.v., at 2 × histamine-reversal ED50, * = not significant. In kind it is in vivo, guinea pig. Here is the method: Cardiovascular effects (basal heart rate and basal blood pressure) in guinea pigs
Male guinea pigs were anesthetized with urethane and the carotid artery and jugular vein were cannulated. Aortic blood pressure was recorded from a pressure transducer and the signal was integrated to give a heart rate signal.
Each animal received a single intravenous injection of one compound. The dose of each compound was based upon the ED50 value from the reversal of histamine-induced bronchoconstriction in the anesthetized guinea pig. Thus the various compounds were studied at equipotent bronchodilator doses (2×ED50). A group of control animals received injections of vehicle only. Changes in heart rate and blood pressure from pre-injection baseline values produced by drugs or vehicle were compared.

The next series concerns responses to adenosine. Conditions: all tissues studied, except rat hippocampus; cited from earlier work.
Series [4] has as its system A1 and A2 adenosine receptors. Conditions: A1 versus A2; cited from earlier work.
For series [5] the following is noted: cited from earlier work.
The conditions of series [6]: bronchial asthma; cited from earlier work.
Where [7] appears, read: rats, i.v., dose for 40% recovery in dP/dt, extrapolated or estimated by probit, read-out: RD40, dP/dt.
Where [8] appears, read: rats, i.v., extrapolated or estimated by probit, read-out: RD40, heart rate.

For orientation: ED50 means the dose at which the effect has come halfway, by size or by number of responders.

Each structure is given as a SMILES string. Like-named read-outs stand apart in the source and are kept apart here.

Regarding `CCCn1c(=O)c2[nH]c(C3CCC(O)C3)nc2n(CCC)c1=O` (mixture of isomers) [cis/trans], in series [1], the median effective dose (ED50) was 20.3 ± 4.6 mg/kg and the “maximum effect (maximum percent reversal of histamine-induced bronchoconstriction)” value worked out at 64.0 ± 4.8%. The ED40 in series [2] (setting [7]) was 19 mg/kg. Further, in series [2] (setting [8]), the ED40 is 20 mg/kg. For the same molecule, in series [2] (rats, i.v.), the “dP/dt, maximum recovery” value stood at 30% and the “heart rate, maximum recovery dose” value was 30 mg/kg. In series [3], the Basal blood pressure was determined as 65 ± 3% and the Basal heart rate is reported as 86 ± 4%.
For the molecule `CCCn1c(=O)[nH]c(=O)c2[nH]cnc21` [Enprofylline, 3-propylxanthine], in series [1], the ED50 was found to be 13.1 ± 3.1 mg/kg and the “maximum effect (maximum percent reversal of histamine-induced bronchoconstriction)” value stood at 84.8 ± 3.6%. Further, the ED40 in series [2] (setting [7]) is 48 mg/kg. In series [2] (setting [8]), the ED40 is 93 mg/kg. In series [2] (rats, i.v.), the “dP/dt, maximum recovery” value came to 30% and the “heart rate, maximum recovery dose” value turned out to be 50 mg/kg. Besides, in series [3], the Basal blood pressure came to 76 ± 10% and the Basal heart rate is recorded as 120 ± 6%. In the series with responses to adenosine, the “effectiveness in diminishing responses to adenosine” value is “much less effective than theophylline”.
For `Cn1c(=O)c2c(ncn2C)n(C)c1=O` [caffeine], in series [4], the “effectiveness in displacing ligands from both the A1 and A2 adenosine receptors” value was “about equally effective”.
Take `Nc1cc(-c2ccncc2)c[nH]c1=O` [Amrinone]: in series [2] (setting [7]), the ED40 is 4.12 mg/kg. Further, the ED40 in series [2] (setting [8]) is 77 mg/kg. For the same molecule, in series [2] (rats, i.v.), the “dP/dt, maximum recovery” value is 63% and the “heart rate, maximum recovery dose” value was 10 mg/kg.
As to `Cn1c(=O)c2[nH]cnc2n(C)c1=O` [Theophylline], in series [1], the ED50 worked out at 35.1 ± 5.3 mg/kg and the “maximum effect (maximum percent reversal of histamine-induced bronchoconstriction)” value is reported as 72.8 ± 6.6%. In addition, the ED40 in series [2] (read-out: RD40, dP/dt) came to 18 mg/kg. Moreover, the ED40 in series [2] (read-out: RD40, heart rate) amounted to 94 mg/kg. Moreover, in series [2] (rats, i.v.), the “dP/dt, maximum recovery” value came to 50% and the “heart rate, maximum recovery dose” value is recorded as 50 mg/kg. For the same molecule, in series [3], the Basal blood pressure came out at 66 ± 8% and the Basal heart rate turned out to be 132 ± 4%. In series [4], the “effectiveness in displacing ligands from both the A1 and A2 adenosine receptors” value is listed as “about equally effective”. Besides, in series [5] (in vivo), the cardiac stimulation entry was “sometimes powerful cardiac stimulation”, the perfusion of organs result is “increased perfusion of most organs” and the peripheral vascular resistance result is listed as “modest decreases in peripheral vascular resistance”. Besides, in series [5] (therapeutic doses, effect short-lived in man), the heart rate entry is given as “modest increases in heart rate”. In addition, the vital capacity result in series [6] is reported as “demonstrable increase in vital capacity”.
In the case of `CCCn1c(=O)c2[nH]c([C@H]3CC[C@H](O)C3)nc2n(CCC)c1=O` (relative stereo) [trans, trans-8-(3-hydroxycyclopentyl)-1,3-dipropylxanthine], in series [1], the ED50 worked out at 11.6 ± 1.6 mg/kg and the “maximum effect (maximum percent reversal of histamine-induced bronchoconstriction)” value is recorded as 78.5 ± 4.0%. Further, the ED40 in series [2] (setting [7]) is 7.8 mg/kg. Further, the ED40 in series [2] (setting [8]) is 3.1 mg/kg. Moreover, in series [2] (rats, i.v.), the “dP/dt, maximum recovery” value was found to be 71% and the “heart rate, maximum recovery dose” value came out at 120 mg/kg. Further, in series [3], the Basal blood pressure is listed as 96 ± 8% and the Basal heart rate is listed as 107 ± 5%.
Consider `CCCn1c(=O)c2[nH]c([C@H]3CC[C@@H](O)C3)nc2n(CCC)c1=O` (relative stereo) [cis, cis-8-(3-hydroxycyclopentyl)-1,3-dipropylxanthine], for which, in series [1], the median effective dose (ED50) is 14.1 ± 3.6 mg/kg and the “maximum effect (maximum percent reversal of histamine-induced bronchoconstriction)” value turned out to be 72.8 ± 6.8%. For the same molecule, in series [2] (setting [7]), the ED40 was 17.7 mg/kg. Moreover, the ED40 in series [2] (setting [8]) was 120 mg/kg. Also, in series [2] (rats, i.v.), the “dP/dt, maximum recovery” value is given as 53% and the “heart rate, maximum recovery dose” value stood at 20 mg/kg. In series [3], the Basal blood pressure stood at 90 ± 5% and the Basal heart rate turned out to be 106 ± 3%.
